The values that follow come from US11345699B2, “Apoptosis signal-regulating kinase 1 inhibitors and methods of use thereof” (Enanta Pharmaceuticals, Inc., priority 2018, dated 2022).

The IC50 is the concentration that inhibits the measured activity by half.

Sequence of ASK1 (Q99683 whole entry): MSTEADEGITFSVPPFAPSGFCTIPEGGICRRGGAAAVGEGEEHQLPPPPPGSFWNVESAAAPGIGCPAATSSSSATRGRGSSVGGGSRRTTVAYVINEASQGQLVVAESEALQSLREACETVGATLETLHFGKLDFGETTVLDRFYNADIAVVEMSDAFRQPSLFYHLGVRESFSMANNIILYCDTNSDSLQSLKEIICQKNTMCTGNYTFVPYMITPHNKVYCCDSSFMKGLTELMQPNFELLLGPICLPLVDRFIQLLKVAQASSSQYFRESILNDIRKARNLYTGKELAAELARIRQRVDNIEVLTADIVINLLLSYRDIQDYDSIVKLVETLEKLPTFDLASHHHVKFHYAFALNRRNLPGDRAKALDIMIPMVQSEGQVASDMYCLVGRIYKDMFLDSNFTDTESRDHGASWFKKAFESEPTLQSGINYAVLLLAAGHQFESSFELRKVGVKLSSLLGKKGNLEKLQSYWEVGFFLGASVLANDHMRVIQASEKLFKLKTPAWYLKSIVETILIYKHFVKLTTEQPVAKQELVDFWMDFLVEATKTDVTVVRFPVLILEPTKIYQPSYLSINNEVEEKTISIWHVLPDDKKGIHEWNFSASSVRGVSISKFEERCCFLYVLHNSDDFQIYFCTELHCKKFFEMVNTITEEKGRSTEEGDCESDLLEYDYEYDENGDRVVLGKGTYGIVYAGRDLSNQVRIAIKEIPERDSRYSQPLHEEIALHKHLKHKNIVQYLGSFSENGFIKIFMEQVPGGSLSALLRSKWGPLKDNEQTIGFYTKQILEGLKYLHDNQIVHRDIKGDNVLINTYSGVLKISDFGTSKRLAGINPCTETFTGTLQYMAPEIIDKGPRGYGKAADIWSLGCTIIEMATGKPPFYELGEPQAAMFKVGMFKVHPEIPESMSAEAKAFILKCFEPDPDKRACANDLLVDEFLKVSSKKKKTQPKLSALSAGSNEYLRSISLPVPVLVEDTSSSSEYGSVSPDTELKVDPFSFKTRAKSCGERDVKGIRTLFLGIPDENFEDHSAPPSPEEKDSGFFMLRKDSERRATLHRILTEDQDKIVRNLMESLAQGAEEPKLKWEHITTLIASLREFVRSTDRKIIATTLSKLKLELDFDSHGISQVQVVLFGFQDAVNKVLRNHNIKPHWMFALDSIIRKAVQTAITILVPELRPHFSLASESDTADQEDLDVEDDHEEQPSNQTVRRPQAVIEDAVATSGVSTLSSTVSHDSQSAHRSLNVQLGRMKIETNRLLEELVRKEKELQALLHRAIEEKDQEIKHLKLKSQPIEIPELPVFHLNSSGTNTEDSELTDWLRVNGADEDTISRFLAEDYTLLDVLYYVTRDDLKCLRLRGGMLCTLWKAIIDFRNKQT

The target of the test is ASK1 (Homo sapiens (Human), UniProt Q99683). Put plainly: HTRF KinEASE Assay (TR-FRET), inhibition of ASK1. The format is biochemical. The following applies: ASK1 kinase, 100 μM ATP, 1 μM STK3 peptide substrate, compound 0 to 10 μM. As to the method:
Assay HTRF® KinEASE™ Assay
ASK1 was purchased from Thermofisher (Catalogue #PV4011), ATP was purchased from Sigma (Catalogue #A7699), HTRF® KinEASE™ Assay System was obtained from Cisbio (Bedford, Mass.). ½ Area plate was purchased from Perkin Elmer (Catalogue ##6005560). HTRF® KinEASE™-STK is a generic method for measuring serine/threonine kinase activities using a time-resolved fluorescence resonance energy transfer (TR-FRET) immunoassay. The IC50 value for each compound was determined in the presence of compound (various concentration from 0 to 10 μM) and a fixed amount of ATP and peptide substrates. The test compound, 1 μM STK3 peptide substrate, and […] of ASK1 kinase are incubated with kinase reaction buffer containing 50 mM HEPES Ph 7.5, 0.01% BRIJ-35, 10 mM MgCl2, and 1 mM EGTA for 30 minutes. 100 μM ATP is added to start kinase reaction and incubated for 3 hours. The STK3-antibody labeled with Eu^3+-Cryptate and 125 nM streptavidin-XL665 are mixed in a single addition with stop reagents provided by the Cisbio kit used to stop the kinase reaction. Fluorescence is detected using an Envision Multilabeled 2014 reader from PerkinElmer. The Fluorescence is measured at 615 nm (Cryptate) and 665 nm (XL665) and a ratio of 665 nm/615 nm is calculated for each well. The resulting TR-FRET is proportional to the phosphorylation level. Staurosporine was used as the positive control. IC50 was determined by Xlfit 5.3.
By using above method, the inhibition of ASK1 was evaluated for the compounds of Formula (I). Example numbers correspond to those in Table 5.
Background: TR-FRET usually uses a lanthanide donor and a delayed reading to cut background.
The molecule `CC(C)n1cnnc1-c1cccc(NC(=O)c2cc3c(cc2F)CCN(C(=O)OC(C)(C)C)C3)n1` [Example 10, tert-butyl 6-fluoro-7-((6-(4-isopropyl-4H-1,2,4-triazol-3-yl)pyridin-2-yl)carbamoyl)-3,4-dihydroisoquinoline-2(1H)-carboxylate] yielded a 50% inhibitory concentration (IC50) of 1.25 to 10 nM.

In the case of `C[C@H](CO)n1nnnc1-c1cccc(NC(=O)c2cc3c(cc2F)CCN(C(=O)N2CCCCC2)C3)n1` [Example 116], the IC50 lay within 1.25 to 10 nM.

Take `CC(C)n1cnnc1-c1cccc(NC(=O)c2cc3c(cn2)CCN(C(=O)C(C)(C)C)C3)n1` [Example 1, N-(6-(4-isopropyl-4H-1,2,4-triazol-3-yl)pyridin-2-yl)-6-pivaloyl-5,6,7,8-tetrahydro-2,6-naphthyridine-3-carboxamide]: the IC50 lay within 1.25 to 10 nM.

In turn, `COc1cc2c(cc1C(=O)Nc1cccc(-c3nnnn3[C@H](C)CO)n1)CN(S(=O)(=O)c1ccccn1)CC2` [Example 104] displayed a half-inhibitory concentration (IC50) of under 1.25 nM.

For `COc1cc2c(cc1C(=O)Nc1cccc(-c3nnnn3[C@H](C)CO)n1)CN(C(=O)[C@@H](O)CC(C)C)CC2` [Example 113], the IC50 was under 1.25 nM.

The molecule `COCCOC(=O)N1CCc2cc(F)c(C(=O)Nc3cccc(-c4nnnn4[C@H](C)CO)n3)cc2C1` [Example 110] returned an IC50 of 10 to 100 nM.

Consider `CCN1CCc2cc(F)c(C(=O)Nc3cccc(-c4nnnn4[C@H](C)CO)n3)cc2C1` [Example 138], for which the IC50 lay in the range of 100 to 1000 nM.

The molecule `CCNC(=O)N1CCc2cc(F)c(C(=O)Nc3cccc(-c4nnnn4[C@H](C)CO)n3)cc2C1` [Example 111] gave an IC50 of 1.25 to 10 nM.

In the case of `CC(C)n1cnnc1-c1cccc(NC(=O)c2cc3c(cn2)CCN(C(=O)OCC(F)(F)F)C3)n1` [Example 25, 2,2,2-trifluoroethyl 7-((6-(4-isopropyl-4H-1,2,4-triazol-3-yl)pyridin-2-yl)carbamoyl)-3,4-dihydro-2,6-naphthyridine-2(1H)-carboxylate], the IC50 fell in the range of 1.25 to 10 nM.
